Results reported in the supplement of paper PMC11628255, “Interference of metal ions on the bioluminescent signal of firefly, Renilla, and NanoLuc luciferases in high-throughput screening assays” (Frontiers in Chemistry, 2024).
± gives the standard deviation of the averaged measurements.

Key:
Test in all cases: normalised percent inhibition of luminescence (vs positive and negative controls); higher = stronger inhibition
[1] = system: NanoLuc luciferase (NLuc)
Method: (§1)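 Concentration-response (>=11 concentrations) of metal salts on purified FLuc, NLuc or RLuc luminescence in screening (SC) or 100 mM HEPES (H) buffer; salt pre-incubated with enzyme 10 min at RT, read 10 min after substrate. Normalised percent inhibition vs plate positive (PTC-124, isradipine, BTS) and DMSO negative controls; triplicate wells.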

[2] = system: Renilla luciferase (RLuc)
Method: as §1

[3] = system: firefly luciferase (FLuc)
Method: as §1

O=[N+]([O-])[O-].O=[N+]([O-])[O-].[Cd+2] [cadmium nitrate]
normalised percent inhibition [%]
Details	[1]	[2]	[3]
metal salt concentration 0.0001 mM, 100 mM HEPES buffer	-0.809 ± 1.5	-40.7 ± 15	-14 ± 17
metal salt concentration 0.00025 mM, 100 mM HEPES buffer	-0.623 ± 3.6	-15.8 ± 19	-6.16 ± 21
metal salt concentration 0.0005 mM, 100 mM HEPES buffer	-3.63 ± 3.5	-51.3 ± 24	6.48 ± 9.1
metal salt concentration 0.001 mM, 100 mM HEPES buffer	-0.485 ± 1.9	-29.6 ± 6	33.8 ± 4.1
metal salt concentration 0.002 mM, screening conditions buffer	4.83 ± 4.2	-8.95 ± 8.6	–
metal salt concentration 0.005 mM, screening conditions buffer	6.73 ± 6	-5.21 ± 8.8	–
metal salt concentration 0.01 mM, screening conditions buffer	0.612 ± 1.6	-13.5 ± 18	–
metal salt concentration 0.02 mM, screening conditions buffer	-0.781 ± 5.1	-3.71 ± 6.7	–
metal salt concentration 0.025 mM, 100 mM HEPES buffer	-1.09 ± 2.9	-16 ± 26	95.9 ± 3.9
metal salt concentration 0.05 mM, 100 mM HEPES buffer	4.79 ± 3.8	-20.9 ± 10	99.08 ± 0.82
metal salt concentration 0.05 mM, screening conditions buffer	17.7 ± 10	-1.96 ± 5.9	–
metal salt concentration 0.1 mM, 100 mM HEPES buffer	13 ± 6.7	18 ± 7.5	99.41 ± 0.19
metal salt concentration 0.1 mM, screening conditions buffer	7.22 ± 2.6	-1.09 ± 6.9	–
metal salt concentration 0.2 mM, screening conditions buffer	20.6 ± 6.8	-5.06 ± 7.3	–
metal salt concentration 0.5 mM, 100 mM HEPES buffer	18.6 ± 2.3	47.1 ± 20	100.3 ± 0.68
metal salt concentration 0.5 mM, screening conditions buffer	30.7 ± 4.9	39.6 ± 6.7	–
metal salt concentration 1 mM, 100 mM HEPES buffer	24.8 ± 3	95.1 ± 2.6	100.3 ± 0.49
metal salt concentration 1 mM, screening conditions buffer	56.2 ± 9.1	68.6 ± 12	–
metal salt concentration 2.5 mM, 100 mM HEPES buffer	20.6 ± 2.7	104 ± 1.3	100.3 ± 0.68
metal salt concentration 2.5 mM, screening conditions buffer	93.1 ± 3	79.4 ± 4.4	–
metal salt concentration 5 mM, 100 mM HEPES buffer	26.5 ± 5.5	105 ± 2.7	99.3 ± 0.68
metal salt concentration 5 mM, screening conditions buffer	113 ± 4.1	93.4 ± 2.4	–

O=[N+]([O-])[O-].O=[N+]([O-])[O-].[Cu+2] [copper(II) nitrate]
normalised percent inhibition [%]
Details	[1]	[2]	[3]
metal salt concentration 0.0001 mM, 100 mM HEPES buffer	-0.372 ± 3	-51.9 ± 23	87.3 ± 0.68
metal salt concentration 0.00025 mM, 100 mM HEPES buffer	-0.297 ± 4.1	-48.5 ± 24	98.97 ± 0.94
metal salt concentration 0.0005 mM, 100 mM HEPES buffer	1.75 ± 3.8	-45.4 ± 25	100.2 ± 0.86
metal salt concentration 0.001 mM, 100 mM HEPES buffer	0.0805 ± 1.8	-40 ± 21	100.5 ± 0.32
metal salt concentration 0.002 mM, screening conditions buffer	14.1 ± 1.5	-3.55 ± 2.2	–
metal salt concentration 0.005 mM, screening conditions buffer	18.8 ± 0.91	-13.6 ± 6.9	–
metal salt concentration 0.01 mM, 100 mM HEPES buffer	7.71 ± 5.1	62.8 ± 10	–
metal salt concentration 0.01 mM, screening conditions buffer	65.1 ± 8.6	-1.01 ± 9.8	–
metal salt concentration 0.02 mM, screening conditions buffer	133 ± 1.4	-23.7 ± 5.4	–
metal salt concentration 0.025 mM, 100 mM HEPES buffer	59.8 ± 10	105 ± 1.8	100.3 ± 0.68
metal salt concentration 0.05 mM, 100 mM HEPES buffer	95.4 ± 2.7	106 ± 1.2	100.6 ± 0.19
metal salt concentration 0.05 mM, screening conditions buffer	135.6 ± 0.57	-13 ± 2.6	–
metal salt concentration 0.1 mM, 100 mM HEPES buffer	99.6 ± 1.4	106.6 ± 0.68	100.5 ± 0.56
metal salt concentration 0.1 mM, screening conditions buffer	136.5 ± 0.29	-8.47 ± 7.3	–
metal salt concentration 0.2 mM, screening conditions buffer	136.6 ± 0.2	105.7 ± 0.96	–
metal salt concentration 0.5 mM, 100 mM HEPES buffer	101.5 ± 0.56	105 ± 2.1	100.5 ± 0.32
metal salt concentration 0.5 mM, screening conditions buffer	137.2 ± 0.16	107	–
metal salt concentration 1 mM, 100 mM HEPES buffer	101.9 ± 0.15	–	100.4 ± 0.75
metal salt concentration 1 mM, screening conditions buffer	137.4 ± 0.17	105.8 ± 0.24	–
metal salt concentration 2.5 mM, 100 mM HEPES buffer	101 ± 2.5	–	100.4 ± 0.37
metal salt concentration 2.5 mM, screening conditions buffer	137.3 ± 0.23	105.7 ± 0.6	–
metal salt concentration 5 mM, 100 mM HEPES buffer	102.11 ± 0.092	–	99.95 ± 0.94
metal salt concentration 5 mM, screening conditions buffer	137.49 ± 0.063	106.3 ± 0.24	–

O=[N+]([O-])[O-].O=[N+]([O-])[O-].O=[N+]([O-])[O-].[Ga+3] [gallium(III) nitrate]
normalised percent inhibition [%]
Details	100 mM HEPES buffer	screening conditions buffer
[1], metal salt concentration 0.002 mM	–	3.99 ± 7.6
[1], metal salt concentration 0.005 mM	–	6.69 ± 0.19
[1], metal salt concentration 0.01 mM	–	2.43 ± 7.3
[1], metal salt concentration 0.02 mM	–	4.43 ± 6.3
[1], metal salt concentration 0.05 mM	–	6.6 ± 5.5
[1], metal salt concentration 0.1 mM	–	7.81 ± 4.6
[1], metal salt concentration 0.2 mM	–	8.25 ± 4.3
[1], metal salt concentration 0.5 mM	–	12.8 ± 6.8
[1], metal salt concentration 1 mM	–	35 ± 6.8
[1], metal salt concentration 2.5 mM	–	89.2 ± 38
[1], metal salt concentration 5 mM	–	120 ± 20
[2], metal salt concentration 0.002 mM	–	-6.33 ± 7.7
[2], metal salt concentration 0.005 mM	–	-7.44 ± 12
[2], metal salt concentration 0.01 mM	–	-4.58 ± 11
[2], metal salt concentration 0.02 mM	–	-6.17 ± 5.8
[2], metal salt concentration 0.05 mM	–	-6.25 ± 6.5
[2], metal salt concentration 0.1 mM	–	-7.99 ± 8.9
[2], metal salt concentration 0.2 mM	–	-8.55 ± 15
[2], metal salt concentration 0.5 mM	–	-5.45 ± 11
[2], metal salt concentration 1 mM	–	-8.55 ± 3.7
[2], metal salt concentration 2.5 mM	–	-0.965 ± 7.9
[2], metal salt concentration 5 mM	–	71.8 ± 34
[3], metal salt concentration 0.0001 mM	-32.2 ± 3.6	19.5 ± 2.5
[3], metal salt concentration 0.00025 mM	-34.5 ± 6.7	-10.2 ± 3
[3], metal salt concentration 0.0005 mM	-31.8 ± 17	10 ± 8.8
[3], metal salt concentration 0.001 mM	-39.5 ± 9	-11.4 ± 3.9
[3], metal salt concentration 0.01 mM	27.3 ± 10	–
[3], metal salt concentration 0.025 mM	90.2 ± 6.4	-13.5 ± 3.7
[3], metal salt concentration 0.05 mM	98.3 ± 1.3	–
[3], metal salt concentration 0.1 mM	99.28 ± 0.83	–
[3], metal salt concentration 0.5 mM	99.8 ± 1.2	–
[3], metal salt concentration 1 mM	98.9 ± 1.4	–
[3], metal salt concentration 2.5 mM	99.5 ± 1.1	–
[3], metal salt concentration 5 mM	100.3 ± 0.68	–

[Cl][Fe][Cl] [iron(II) chloride]
normalised percent inhibition [%]
Details	[1]	[2]	[3]
metal salt concentration 0.0001 mM, 100 mM HEPES buffer	-0.558 ± 2.3	-50 ± 17	-43.3 ± 4.8
metal salt concentration 0.00025 mM, 100 mM HEPES buffer	-2.01 ± 4.6	-20.5 ± 28	-33.6 ± 25
metal salt concentration 0.0005 mM, 100 mM HEPES buffer	-2.14 ± 1.8	-32.5 ± 6.8	-33.5 ± 6.4
metal salt concentration 0.001 mM, 100 mM HEPES buffer	-0.324 ± 3.7	-19.3 ± 6.2	-45.9 ± 26
metal salt concentration 0.002 mM, screening conditions buffer	-2.42 ± 2.8	-4.21 ± 7.8	-3.52 ± 20
metal salt concentration 0.005 mM, screening conditions buffer	1.43 ± 8.8	1.72 ± 8.3	1.02 ± 24
metal salt concentration 0.01 mM, screening conditions buffer	5.7 ± 1.8	-1.72 ± 4.7	2 ± 14
metal salt concentration 0.02 mM, screening conditions buffer	-0.122 ± 6.1	16.1 ± 9.5	1.67 ± 19
metal salt concentration 0.025 mM, 100 mM HEPES buffer	3.65 ± 3.3	16.3 ± 3.9	53.6 ± 2.7
metal salt concentration 0.05 mM, 100 mM HEPES buffer	5.35 ± 0.67	43.1 ± 16	99.99 ± 0.87
metal salt concentration 0.05 mM, screening conditions buffer	-5.75 ± 4.8	-2.31 ± 8.4	3.62 ± 24
metal salt concentration 0.1 mM, 100 mM HEPES buffer	17.2 ± 3.2	86.8 ± 4.5	100.4 ± 0.27
metal salt concentration 0.1 mM, screening conditions buffer	22.5 ± 7	54.2 ± 5.8	14.5 ± 11
metal salt concentration 0.2 mM, screening conditions buffer	40.4 ± 7.6	71.6 ± 2.6	22.9 ± 12
metal salt concentration 0.5 mM, 100 mM HEPES buffer	61.9 ± 9.7	105 ± 3.9	99.99 ± 0.63
metal salt concentration 0.5 mM, screening conditions buffer	64 ± 7.3	84.8 ± 5.6	98 ± 4.6
metal salt concentration 1 mM, 100 mM HEPES buffer	85.4 ± 2.2	103 ± 2.6	100.5 ± 0.31
metal salt concentration 1 mM, screening conditions buffer	96 ± 10	93.3 ± 3.1	100.7 ± 0.28
metal salt concentration 2.5 mM, 100 mM HEPES buffer	99.74 ± 0.49	108.1 ± 0.56	100.2 ± 0.56
metal salt concentration 2.5 mM, screening conditions buffer	151 ± 3.3	105 ± 2	99.42 ± 0.97
metal salt concentration 5 mM, 100 mM HEPES buffer	101.7 ± 0.26	108 ± 1.1	100.3 ± 0.41
metal salt concentration 5 mM, screening conditions buffer	160.2 ± 0.5	106 ± 0.51	100.9 ± 0.84

O=S(=O)([O-])[O-].[Fe+2] [iron(II) sulfate]
normalised percent inhibition [%]
Details	[1]	[2]	[3]
metal salt concentration 0.0001 mM, 100 mM HEPES buffer	-2.4 ± 0.95	41.8 ± 57	-15.4 ± 19
metal salt concentration 0.00025 mM, 100 mM HEPES buffer	0.242 ± 1.3	-25.1 ± 17	-21.3 ± 21
metal salt concentration 0.0005 mM, 100 mM HEPES buffer	3.64 ± 1.7	-18.6 ± 45	-14.6 ± 9.3
metal salt concentration 0.001 mM, 100 mM HEPES buffer	0.251 ± 4.1	-4.06 ± 18	25.9 ± 67
metal salt concentration 0.002 mM, screening conditions buffer	-6.27 ± 4.7	2.02 ± 10	1.35 ± 17
metal salt concentration 0.005 mM, screening conditions buffer	5.45 ± 5.8	11 ± 4.1	9.94 ± 12
metal salt concentration 0.01 mM, screening conditions buffer	3.08 ± 4.9	18.2 ± 2.5	4.1 ± 16
metal salt concentration 0.02 mM, screening conditions buffer	7.25 ± 4.3	17.5 ± 9.7	6.54 ± 4.6
metal salt concentration 0.025 mM, 100 mM HEPES buffer	3.97 ± 5	28.6 ± 12	62.5 ± 8.3
metal salt concentration 0.05 mM, 100 mM HEPES buffer	6.24 ± 1.8	50.9 ± 12	100.1 ± 0.94
metal salt concentration 0.05 mM, screening conditions buffer	11.5 ± 2.6	3.55 ± 9.2	7.51 ± 17
metal salt concentration 0.1 mM, 100 mM HEPES buffer	19.9 ± 2.1	85.8 ± 11	99.99 ± 0.56
metal salt concentration 0.1 mM, screening conditions buffer	37.5 ± 3	58.5 ± 6.4	-0.76 ± 26
metal salt concentration 0.2 mM, screening conditions buffer	49.5 ± 7.2	74.4 ± 2.4	28.7 ± 16
metal salt concentration 0.5 mM, 100 mM HEPES buffer	67.9 ± 3.6	104.9 ± 0.56	100.2 ± 0.56
metal salt concentration 0.5 mM, screening conditions buffer	81.1 ± 2	93.3 ± 5.9	94.1 ± 5.9
metal salt concentration 1 mM, 100 mM HEPES buffer	87.7 ± 2.2	105 ± 3.1	100.3 ± 0.16
metal salt concentration 1 mM, screening conditions buffer	138 ± 2.5	96 ± 1.3	99.42 ± 0.97
metal salt concentration 2.5 mM, 100 mM HEPES buffer	101 ± 0.26	104 ± 3	100.2 ± 0.16
metal salt concentration 2.5 mM, screening conditions buffer	157.3 ± 1.2	103.6 ± 0.89	100.4 ± 0.49
metal salt concentration 5 mM, 100 mM HEPES buffer	101.93 ± 0.031	107 ± 1.1	100.2 ± 0.41
metal salt concentration 5 mM, screening conditions buffer	158.9 ± 1.2	105 ± 1.6	101.2 ± 0.28
